Laboratory results as given in patent publication US20160243080A1, “FORMULATIONS OF ANGIOTENSIN RECEPTOR BLOCKERS” (priority 2015, published 2016).
“Also recorded” adds a separate entry of the source. Read-outs that look alike come from different tables or passages of the source.

Assays:
wounds of AT2R^−/− mice = test: Wound healing in AT2R^−/− mice; format: in vivo, mouse
Source text: Pharmacologically, ARBs and ACE inhibitors differ on their mechanism of action and the level at which they block RAS. While ARBs block RAS distally at the AT1R level, ACEi block the conversion of Angiotensin I to Angiotensin II and thereby diminishing available Angiotensin II to bind to either AT1R or AT2Rs. […] Collagen is a marker for assessing skin strength.

[1] = cited from earlier work
mitochondrial Cox IV = test: Mitochondrial content in aged diabetic pig wounds; format: in vivo
Source text: (§1) An increase in a-SMA and phosphorylated VEGF Receptor 2 was also observed. Finally, the inventors have previously reported the presence of a functional mitochondrial angiotensin system within the mitochondria that played a role in mitochondrial bioenergetics regulation.

p42/44 MAPK = test: Proliferation and angiogenesis markers in aged diabetic pig wounds; format: in vivo
Source text: as §1

VEGF Receptor 2 = test: as above; format: in vivo
Source text: as §1

[2] = tested on: alpha-smooth muscle actin (α-SMA); test: as above; format: in vivo
Source text: as §1

[3] = tested on: healing skin of aged diabetic pigs; test: Tensiometry of healed pig skin; format: in vivo; conditions: vs placebo
Procedure: At termination, an approximately 8 mm×16 mm tensiometry sample was collected from the dorsal side of each wound site that spanned the cranial to caudal aspect of the wound for analysis. This procedure was performed and data maintained by sponsor personnel. No details of analysis or results were included in this in-life report. […] Using Mason Trichrome (FIG. 22, panels A-H) and H&E stains (FIG. 22, panel I). Collagen content and other histological changes in healing skin were examined. Tensiometry was employed to quantify differences in tensile strength between placebo and valsartan treated wounds.

TGFβ3 mRNA = test: mRNA expression in treated mouse wounds; format: in vivo; conditions: P<0.05
[4] = tested on: phosphorylated Smad1, 5 and 9; test: Immunohistochemistry of Smads in wounds of aged diabetic pigs; format: in vivo; conditions: pig wounds, vs placebo
Source text: (§2) Although not completely characterized, wound healing is greatly influenced by subtle changes of transforming growth factor-beta (TGF-β) superfamily, which is strongly influenced by RAS. TGF-β signaling mediate the phosphorylation of Smad family proteins. Phosphorylated Smads then translocate to the nucleus with the common-mediator (co-Smad) Smad4. Additionally, Smad activity is also regulated by phosphorylation through non-receptor kinases such as p42/44 mitogen activating protein kinase (MAPK) and p38 MAPK. In chronic wounds, failure of TGF-β Smad 2 and 3 phosphorylation and reduction in p42/44 MAPK activity was associated with a slower proliferative rate and impaired healing. RAS has been tightly linked to TGFβ activity but the specific effects of AT1R on the different Smads during wound healing are not known.

Smad1 = test: as above; format: in vivo; conditions: pig wounds, vs placebo
Source text: as §2

Smad3 = test: as above; format: in vivo; conditions: pig wounds, vs placebo
Source text: as §2

Smad2 = test: as above; format: in vivo; conditions: pig wounds, vs placebo
Source text: as §2

in vivo = conditions: Yucatan miniature swine, pig
Procedure: Plasma standards and samples (50 μL) were extracted in 500 μL methanol containing 100 nM losartan (internal standard). Extracts were centrifuged at 16000×g for 5 minutes at 4° C. to precipitate proteins. Extracts (500 μL) were transferred to a new tube and dried in vacuum at 45° C. for 90 minutes. Samples were reconstituted in 30% acetonitrile in water (50 μL) and centrifuged as above. Supernatants (45 μL) were transferred to a 96 well plate. Analytes (10 μL) were separated on an Agilent 1290 UPLC system with a c18 column using a gradient run of 50-95% acetonitrile over 2 minutes at 0.4 mL/minute and detected on an Agilent 6520 QTOF mass spectrometer. Standards within the quantifiable range were used to generate a standard curve.
Prior to surgery (Day 0), Day 10 (pre-dose), Day 18 (pre-dose), and Day 57 (prior to termination); blood samples (3 mL/animal) were collected, processed to plasma by centrifuging for approximately 15 minutes at 3000 rpm at 4° C., transferred into labeled cryovials, immediately frozen on dry ice, and shipped to the sponsor for future analysis.

wound = test: Diabetic mouse and pig wound models, timing of topical application (summary statements); format: in vivo; conditions: first 1-7 days after wounding
[5] = tested on: wounds of diabetic (Leprdb) mice; test: Mouse model wound healing experiments, planimetric wound closure; format: in vivo; conditions: topical, applied from 7 days after wounding (proliferation/remodeling phase)
Source text: In FIG. 11, the “ratio” (y-axis) reflects the percentage of wound closure as compared to the wound size on day 7 in the same animal.

[6] = tested on: 5 cm full-thickness circular excisional wounds; test: Wound healing in aged diabetic Yucatan miniature swine: digital photography, planimetry, image analysis; format: in vivo, Sus scrofa
Procedure: Both gels are applied daily. • Wound measurements: On a daily basis, planimetry and digital photography are conducted to assess changes in wound size. • Upon complete closure: Healed wound tissue is collected and analyzed. The study had two treatment groups, which consisted of a test article treatment or a vehicle control treatment on three diabetic (alloxan-induced) Yucatan miniature swine. The acclimation period was 7 days. On Day 0, each study animal underwent surgery to create 8 (4 per side) 5 cm full-thickness circular excisional wounds on their dorsal surface. All wounds were initially topically treated with the same (Treatment A) compound once daily for the first 7 days (Day 0 through Day 6). Thereafter, 4 wounds per animal received daily topical administration of Treatment B, and the other 4 wounds received Treatment C for the duration of the study. All wound sites (8 per animal) were covered with one dressing type. All wounds were observed/evaluated up through final sample collection (Day 57). The experimental study design, including treatment groups and wound sites/time points, and variables to be evaluated and intervals are presented in Tables 1 through 3. On Day 0, the dorso-lateral back area of each animal was closely clipped with electric clippers. Each animal was prepared for surgery using alternating disinfecting scrubs and isopropyl alcohol rinses. The surgical area was draped and a sufficiently large hole(s) was created within the drape(s). The proposed wound sites were outlined using a sterile template and sterile marker. […] Refer to FIG. 3. • a. Using a surgical blade, eight 5 cm full-thickness circular excisional wounds were created (down to the fat layer). All excised tissue from each wound site was discarded. • b. Direct pressure was utilized to obtain hemostasis. • c. […] Each animal was monitored until it had completely recovered from the anesthesia. […] Each animal was monitored until it had completely recovered from anesthesia (if employed). […]

AT2R mRNA = test: mRNA expression in treated mouse wounds; format: in vivo
[7] = format: in vivo; conditions: body weight, blood pressure, blood glucose, serum chemistry and hematology
Source text: Prior to this study, selected male animals had been castrated and fitted with vascular access ports (VAP) for diabetic induction. After these animals had fully recovered from VAP procedures, diabetes was chemically-induced using alloxan. Following induction, the glucose levels of the animals was monitored and regulated with Vetsulin (or equivalent). A glucometer and/or other appropriate device was used to determine glucose levels of the animals. VAP procedures, diabetic induction, and recovery periods were conducted under a separate SRC standard protocol prior to the initiation of this study. Glucose levels of all study animals were monitored and regulated at least once daily during the study to keep within targeted glucose range (target 200 to 600 mg/dL). Blood pressure was determined for each animal on Days 7, 8, 18, and 57 (prior to termination).
General in-cage/pen observations for mortality/moribundity were made at least daily.
Animals were weighed once during acclimation (Day −1) and again prior to termination (Day 57).
Day −5 (acclimation), Day 10 (pre-dose), Day 18 (pre-dose) and Day 57 (prior to termination); blood samples for CBC and serum chemistries were collected for clinical pathology analysis from each animal and analyzed by SRC. • Hematology: Blood samples (3 mL/animal) were collected from all animals. K3EDTA was used as anticoagulant. […]

[8] = tested on: healing skin of aged diabetic pigs; test: Masson's trichrome and H&E staining of skin sections from aged diabetic pigs; format: in vivo, pig
Source text: Using Mason Trichrome (FIG. 22, panels A-H) and H&E stains (FIG. 22, panel I). Collagen content and other histological changes in healing skin were examined. Tensiometry was employed to quantify differences in tensile strength between placebo and valsartan treated wounds.

In the case of `CCCCC(=O)N(Cc1ccc(-c2ccccc2-c2nnn[nH]2)cc1)[C@H](C(=O)O)C(C)C` [valsartan], the “wound healing / wound closure in AT2R^−/− mice” value (wounds of AT2R^−/− mice) is given as “delayed healing”, the “expected blood level of Valsartan in a human on oral Valsartan” value [1] is given as 4 to 5 µM and the “mitochondrial Cox IV / mitochondrial numbers” value (mitochondrial Cox IV) is given as “significant increase in the mitochondrial numbers”. The “mitochondrial Cox IV / mitochondrial numbers” value (mitochondrial Cox IV; listed as topical Valsartan) was “increase in mitochondrial COX IV”, the “phosphorylation of p42/44 MAPK” value (p42/44 MAPK) was “enhanced phosphorylation of p42/44 MAPK” and the “phosphorylated VEGF Receptor 2” value (VEGF Receptor 2) was “increase”. For the same molecule, the α-SMA [2] was “increase”, the “tensile strength of healing skin” value [3] was “higher tensile strength” and the “decrease in TGFβ3 mRNA” value (TGFβ3 mRNA) was 0.6 fold. For the same molecule, the “Smad1, 5, 9 phosphorylation” value [4] was “decreased; also recorded: decrease in the expression”, the Smad1 expression (Smad1) was “decrease in the expression” and the Smad1 expression (Smad1; listed as topical Valsartan) was “inhibited”. For the same molecule, the Smad3 expression (Smad3) was “higher expression”, the “phosphorylated Smad3” value (Smad3) was “higher expression” and the Smad3 expression (Smad3; listed as topical Valsartan) was “activated”. The “phosphorylated Smad3” value (Smad3; listed as topical Valsartan) was “increase in phosphorylated Smad3”, the Smad2 expression (Smad2) was “decrease in the expression” and the Smad2 expression (Smad2; listed as topical Valsartan) was “inhibited”. For the same molecule, the concentration at 57 day (in vivo) was under 1 nM, the “wound healing when applied during the inflammatory phase” value (wound) was “made the wounds bigger” and the “wound healing when applied during the inflammatory phase” value (wound; listed as topical valsartan) was “significantly impaired wound healing”. For the same molecule, the “wound healing / wound closure” value [5] was “more efficacious in accelerating wound healing compared to losartan”, the “epithelization (automated digital analysis of wound images)” value ([6]; aged diabetic pigs, vs placebo) was “higher rates of epithelization” and the “slough at the wound base (automated digital analysis of wound images)” value ([6]; aged diabetic pigs, vs placebo) was “lower accumulation of slough at the wound base; also recorded: clearance of slough”. The “healing rate / wound closure rate (planimetry) as compared to placebo” value ([6]; diabetic pigs, daily topical from Day 7, 57 days) was “faster wound closure rates”, the “AT2R mRNA” value (AT2R mRNA) was “statistically non-significant increase” and the “tolerability / adverse animal health effects” value [7] was “no observed adverse animal health effects”. The “zone of dermal collagen” value [8] was “expanded zone of dermal collagen”, the “dermal collagen layer thickness” value ([8]; P<0.001 vs placebo) was 6±0.2 mm and the epidermal layer thickness ([8]; P<0.001 vs placebo) was 192±11 μm. For the same molecule, the “collagen fiber arrangement (ultrastructural analysis)” value ([8]; vs placebo) was “more organized collagen fiber arrangement”.
